Measurements from ChEMBL document CHEMBL4627377, “Betulin isolated from Pyrola incarnata Fisch. inhibited lipopolysaccharide (LPS)-induced neuroinflammation with the guidance of computer-aided drug design” (Bioorg Med Chem Lett, 2020).
Active and inactive are the calls of the source. The calls are words filed in the database; no cut-off is given here.

What was measured:
BV-2 [1] = experiment: Inhibition of LPS-induced TNF-alpha production in […] BV2 cells at 250 ug/ml preincubated for 4 hrs followed by LPS stimulation and measured after 24 hrs by ELISA; type: functional, cell-based; settings: Mus musculus
BV-2 [2] = experiment: Cytotoxicity against […] BV2 cells assessed as survival rate at 250 ug/ml; type: cell-based; settings: mouse
BV-2 [3] = experiment: Inhibition of LPS-induced IL-1beta production in […] BV2 cells at 250 ug/ml preincubated for 4 hrs followed by LPS stimulation and measured after 24 hrs by ELISA; type: functional, cell-based; settings: Mus musculus
BV-2 [4] = experiment: Inhibition of LPS-induced NO release in […] BV2 cells at 20 ug/ml preincubated for 4 hrs followed by LPS stimulation and measured after 24 hrs by Griess reagent based assay; type: functional, cell-based; settings: Mus musculus
BV-2 [5] = experiment: Inhibition of LPS-induced IL6 production in […] BV2 cells at 20 ug/ml preincubated for 4 hrs followed by LPS stimulation and measured after 24 hrs by ELISA; type: functional, cell-based; settings: Mus musculus
BV-2 [6] = experiment: Inhibition of LPS-induced IL-1beta production in […] BV2 cells preincubated for 4 hrs followed by LPS stimulation and measured after 24 hrs by ELISA; type: functional, cell-based; settings: Mus musculus
BV-2 [7] = experiment: Inhibition of LPS-induced NO release in […] BV2 cells at 62.5 to 250 ug/ml preincubated for 4 hrs followed by LPS stimulation and measured after 24 hrs by Griess reagent based assay; type: functional, cell-based; settings: Mus musculus
BV-2 [8] = experiment: Cytotoxicity against […] BV2 cells assessed as survival rate at 125 ug/ml; type: cell-based; settings: mouse
BV-2 [9] = experiment: Inhibition of LPS-induced JNK-54 activation in […] BV2 cells preincubated for 4 hrs followed by LPS stimulation and measured after 24 hrs by Western blot analysis; type: functional, cell-based; settings: Mus musculus
BV-2 [10] = experiment: Inhibition of LPS-induced iNOS expression in […] BV2 cells at 250 ug/ml preincubated for 4 hrs followed by LPS stimulation and measured after 24 hrs by Western blot analysis; type: functional, cell-based; settings: Mus musculus
BV-2 [11] = experiment: Inhibition of LPS-induced TNF-alpha production in […] BV2 cells preincubated for 4 hrs followed by LPS stimulation and measured after 24 hrs by ELISA; type: functional, cell-based; settings: Mus musculus
BV-2 [12] = experiment: Inhibition of LPS-induced NF-kappaB/p65 nuclear translocation in […] BV2 cells assessed as reduction in p65/NFkappaB level at 250 ug/ml by DAPI staining based fluorescence microscopic analysis; type: functional, cell-based; settings: Mus musculus
BV-2 [13] = experiment: Inhibition of LPS-induced JNK-46 phosphorylation in […] BV2 cells at 62.5 to 250 ug/ml preincubated for 4 hrs followed by LPS stimulation and measured after 24 hrs by Western blot analysis; type: functional, cell-based; settings: Mus musculus
BV-2 [14] = experiment: Inhibition of LPS-induced JNK-54 phosphorylation in […] BV2 cells at 62.5 to 250 ug/ml preincubated for 4 hrs followed by LPS stimulation and measured after 24 hrs by Western blot analysis; type: functional, cell-based; settings: Mus musculus
BV-2 [15] = experiment: Inhibition of LPS-induced IL6 production in […] BV2 cells preincubated for 4 hrs followed by LPS stimulation and measured after 24 hrs by ELISA; type: functional, cell-based; settings: Mus musculus
BV-2 [16] = experiment: Inhibition of LPS-induced JNK-46 activation in […] BV2 cells preincubated for 4 hrs followed by LPS stimulation and measured after 24 hrs by Western blot analysis; type: functional, cell-based; settings: Mus musculus
BV-2 [17] = experiment: Cytotoxicity against […] BV2 cells assessed as survival rate at 500 ug/ml; type: cell-based; settings: mouse

Question: Which results are given for `C[C@@H]1CC[C@]2(C(=O)O[C@H]3O[C@@H](CO)[C@H](O)[C@@H](O)[C@@H]3O)CC[C@]3(C)C(=CC[C@@H]4[C@@]5(C)CC[C@H](O)[C@@](C)(CO)[C@@H]5CC[C@]43C)[C@@H]2[C@]1(C)O`?
Answer: inhibition (BV-2 [1]): Active; Activity (BV-2 [2]): Non-Toxic; inhibition (BV-2 [3]): Active

Question: Which inhibition (BV-2 [4]) does the source give for `COc1cc2c(cc1OC)C(=O)C(CC1CCN(Cc3ccccc3)CC1)C2` (configuration not stated) here?
Answer: Active

Question: And the inhibition (BV-2 [5])?
Answer: Active

Question: With `C=C(C)[C@@H]1CC[C@]2(CO)CC[C@]3(C)[C@H](CC[C@@H]4[C@@]5(C)CC[C@H](O)C(C)(C)[C@@H]5CC[C@]43C)[C@@H]12` [BETULIN] as the compound, how does the inhibition (BV-2 [6]) read?
Answer: Dose-dependent effect

Question: And the inhibition (BV-2 [7])?
Answer: Active

Question: And the Activity (BV-2 [8])?
Answer: Non-Toxic

Question: And the inhibition (BV-2 [9])?
Answer: Dose-dependent effect

Question: What about the inhibition (BV-2 [10]) of the same compound?
Answer: Active

Question: And the inhibition (BV-2 [11])?
Answer: Dose-dependent effect

Question: And the inhibition (BV-2 [12])?
Answer: Active

Question: What about the inhibition (BV-2 [13]) of the same compound?
Answer: Active

Question: What about the inhibition (BV-2 [14]) of the same compound?
Answer: Active

Question: What about the inhibition (BV-2 [15]) of the same compound?
Answer: Dose-dependent effect

Question: What about the inhibition (BV-2 [16]) of the same compound?
Answer: Dose-dependent effect

Question: For `C[C@@H]1CC[C@]2(C(=O)O)CC[C@]3(C)C(=CC[C@@H]4[C@@]5(C)CC[C@H](O)[C@@](C)(CO)[C@@H]5CC[C@]43C)[C@@H]2[C@]1(C)O` [ROTUNDIC ACID], which inhibition (BV-2 [1]) is on record?
Answer: Active

Question: What about the Activity (BV-2 [2]) of the same compound?
Answer: Non-Toxic

Question: What about the inhibition (BV-2 [3]) of the same compound?
Answer: Active

Question: For `C[C@H]1[C@H](C)CC[C@]2(C(=O)O)CC[C@]3(C)C(=CC[C@@H]4[C@@]5(C)CC[C@H](O)C(C)(C)[C@@H]5CC[C@]43C)[C@H]12` [URSOLIC ACID], which Activity (BV-2 [17]) is on record?
Answer: Non-Toxic

Question: And the inhibition (BV-2 [1])?
Answer: Active

Question: What about the inhibition (BV-2 [3]) of the same compound?
Answer: Active
